One series has as its system OCI-LY3 cell line. Kind of series: OCI-LY3 cell proliferation (CTG). The format is cell-based. To be noted: Homo sapiens, 72 hours. The method, then: The tumor cell line OCI-LY3 was used to detect the effect of the compound of the disclosure on inhibiting tumor cell proliferation in vitro.
The tumor cell line used in this experiment was provided by Nanjing Cobioer Biotechnology Co., Ltd. See Table 6 below for specific information.
The OCI-LY3 cell line was cultured in the corresponding medium at 37° C. and 5% CO2, and the logarithmic growth period cells were used for experimental planking. The cells were collected and centrifuged at 800 rpm for 5 minutes, and the culture medium was re-suspended and spread in a 96-well plate. After being cultured overnight in 37° C., 5% CO2 incubator, drugs with different concentration gradients (10 μL of prepared diluent of test compound was added) were added, and incubated in 37° C., 5% CO2 incubator for 72 hours. The cell culture plate was incubated with CTG reagent at room temperature in the dark for 30 minutes and return to room temperature. CTG solution was added into the biosafety cabinet in the dark 100 μL/well, and was shaken and mixed evenly on plate shaker in the dark for 2 minutes, and incubated at room temperature in the dark for 10 minutes. The luminous value was read and recorded with Perkin Elmer Envision instrument.
The luminous value of the blank control group was subtracted from the luminous value measured at each drug concentration, the ratio of this value to DMSO group was taken as the cell inhibition rate (%). GraphPad software was used, the logarithm of drug concentration (log drug concentration) versus inhibition rate was plotted, and the IC50 value and 95% confidence value were automatically fitted and calculated by log (inhibitor) vs. response-variable slop (four parameters) algorithm of nonlinear regression by software.

Another series in a line: Pharmacokinetics of rats. Format: in vivo. To be noted: rat, plasma, SD male rats; for Vd / AUC(0-t) / clearance / half-life: IV 1 mg/kg; for Vd: read-out: Apparent volume of distribution Vdss; for AUC(0-t): read-out: Area under the plasma concentration-time curve AUC0-24h; for clearance: read-out: Clearance rate CL; for half-life: read-out: Half-life T1/2 (converted); for bioavailability / AUC / Cmax / Tmax: PO 3 mg/kg; for AUC: read-out: Area under the plasma concentration-time curve AUC; for Cmax: read-out: Peak concentration Cmax; for Tmax: read-out: Peak time Tmax. How it is done:
The purpose of this experiment was to study the pharmacokinetics of the tested compound in the plasma of SD male rats after intravenous injection and oral administration.
SD male rats from 7 to 10 weeks old were selected, and the dosage of intravenous and oral administration was 1 mg/kg and 3 mg/kg respectively. Rats in the gavage group fasted for at least 12 hours before administration, and feeding was resumed after administration for 4 hours. Intravenous injection group was free to eat and drink during the whole experiment.
Drug preparation operation: in the intravenous injection group, the compound was weighed and dissolved with 5% DMSO/10% Solutol/85% H2O, and a clear solution of 0.5 mg/mL was prepared by vortex, which was filtered by a 0.22 m microporous membrane for later use. In the gavage group, the compound was dissolved in 5% DMSO/10% Solutol/85% H2O, and a uniform suspension was prepared by vortex. On the day of the experiment, the animals in the intravenous group were given the corresponding compound by a single injection through the tail vein, and the dosage volume was 2 mL/kg. In the oral group, the corresponding compounds were given by single gavage, and the dosage volume was 5 mL/kg. The animals before administration were weighed, and the administration volume was calculated according to the weight. The sampling time was 0.083 (injection group), 0.25, 0.5, 1, 2, 4, 6, 8, 10 (gavage group), 24 hours. Approximately 250 μL of whole blood was collected through the jugular vein at each time point for plasma preparation for concentration determination by high performance liquid chromatography-tandem mass spectrometry (LC-MS/MS). All animals were euthanized by CO2 anesthesia after collecting PK samples at the last time point. The non-atrioventricular model of WinnonLin™ Version 6.3 (Pharsight, Mountain View, CA) pharmacokinetic software was used to process the plasma concentration, and the pharmacokinetic parameters were calculated by linear logarithmic trapezoid method.

For another series, the target named is T1, human BTK (Homo sapiens, UniProt Q06187).
T1 construct: purchased Reaction Biology Corp
Kind of series: In vitro BTK kinase activity, 33P isotope-labeled kinase assay. Format: biochemical. How it is done: The IC50 values were determined using ^33P isotope-labeled kinase activity assay (Reaction Biology Corp) to evaluate the inhibitory ability of the tested compounds on human BTK.
Buffer conditions: 20 mM Hepes (pH 7.5), 10 mM MgCl2, 1 mM EGTA, 0.02% Brij35, 0.02 mg/mL BSA, 0.1 mM Na3VO4, 2 mM DTT, 1% DMSO.
Test procedure: At room temperature, the tested compound was dissolved in DMSO and a 10 mM solution was prepared for use. The substrate was dissolved in a newly prepared buffer solution, and the BTK kinase was added thereto and mixed evenly. The compound dissolved in DMSO was added to the kinase reaction mixture through Echo 550 (Acoustic technology; Nanoliter range). After incubation for 20 minutes at room temperature, ^33P-ATP was added to initiate the reaction. The reaction was carried out at room temperature for 2 hours, and the radioactivity of the reaction solution drop was detected by filtration-binding method with P81 ion exchange filter paper. The kinase activity data were expressed by comparing the kinase activity of the group containing the tested compound with the kinase activity of the blank group (only containing DMSO), and the IC50 value was obtained by curve fitting by Prism4 software (GraphPad), the experimental results were shown in Table 3.

In series [1] the test system is OCI-LY10 human diffuse large B lymphoma cells. Kind of series: OCI-LY10 cell proliferation (Cell Titer Glo). Format: cell-based. To be noted: 72 hours. The method, then:
The tumor cell lines OCI-LY10 and TMD-8 were used to detect the effect of the compound of the disclosure on inhibiting tumor cell proliferation in vitro.
OCI-LY10 human diffuse large B lymphoma cells, from Nanjing Cobioer Biotechnology Co., Ltd
The compound was diluted with DMSO to a final concentration of 10 mM. The compound was freshly prepared and ready for use.
a) Logarithmic growth period cells were collected, counted, resuspended with complete culture medium, the cell concentration was adjusted to an appropriate concentration (determined according to the results of cell density optimization test), inoculated on 96-well plates, and 100 μL of cell suspension was added to each well. Cells were incubated in an incubator with 37° C., 100% relative humidity and 5% CO2 for 24 hours.
b) The compound to be tested was diluted to 50 μM with culture medium and then gradient diluted for 8 times. Cells were added with 25 μL/well. The final concentrations of the compound were from […], 3-fold gradient dilution, with a total of 9 concentration points.
c) Cells were incubated in an incubator with 37° C., 100% relative humidity and 5% CO2 for 72 hours;
d) 60 μL of CTG test reagent was added to the culture medium.
e) Shaked fully and reacted in the dark for 10 min. Luminescence was measured on ENVISION and the inhibition rate was calculated.
Cell growth inhibition rate %=[(RLUv−RLUs)/(RLUv−RLUb)]×100%

Results on three molecules are retold here after patent US20230391776A1, “AMIDE OXAZOLE COMPOUND” (MEDSHINE DISCOVERY INC., priority 2020, published 2023).

Molecules are shown by their SMILES.

T1 sequence (Q06187 whole entry): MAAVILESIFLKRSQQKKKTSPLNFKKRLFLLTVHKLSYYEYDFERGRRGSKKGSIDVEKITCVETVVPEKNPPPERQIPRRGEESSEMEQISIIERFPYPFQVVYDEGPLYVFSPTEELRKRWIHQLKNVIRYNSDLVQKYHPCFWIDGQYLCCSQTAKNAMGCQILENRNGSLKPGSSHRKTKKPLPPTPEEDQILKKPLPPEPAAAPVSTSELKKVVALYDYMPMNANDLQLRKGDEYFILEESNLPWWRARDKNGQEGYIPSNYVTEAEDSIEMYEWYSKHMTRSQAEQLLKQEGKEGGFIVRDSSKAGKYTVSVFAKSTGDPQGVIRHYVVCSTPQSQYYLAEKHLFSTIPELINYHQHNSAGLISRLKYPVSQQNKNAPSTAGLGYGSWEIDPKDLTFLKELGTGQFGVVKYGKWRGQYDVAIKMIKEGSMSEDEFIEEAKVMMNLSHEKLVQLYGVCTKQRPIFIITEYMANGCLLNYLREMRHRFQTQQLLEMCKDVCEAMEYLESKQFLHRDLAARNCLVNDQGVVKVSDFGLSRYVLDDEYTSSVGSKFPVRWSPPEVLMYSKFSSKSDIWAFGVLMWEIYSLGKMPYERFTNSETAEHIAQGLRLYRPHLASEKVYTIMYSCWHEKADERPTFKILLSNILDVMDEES

As for `Cc1cc(-c2nc(C(=O)Nc3cn4cc(C(C)(C)O)nc4cc3-c3ccccc3)co2)ccn1` [WX009], the 50% inhibitory concentration (IC50) – broadly, the concentration at which inhibition is half-maximal – in the series on OCI-LY3 cell line was 121 nM. In the series “Pharmacokinetics of rats”, the Vd was 0.2 L/kg; the AUC(0-t) was 35.5 µM·h; the clearance – broadly, the rate of elimination divided by the concentration – is 1.1 mL/min/kg; the half-life was 150 min. For the same molecule, in “Pharmacokinetics of rats”, the bioavailability (commonly dose-corrected exposure relative to a reference, in per cent) turned out to be 55%; the AUC is 59.1 µM·h; the Cmax came out at 10.1 µM; the time to peak (Tmax) (commonly the time at which the peak concentration occurs) stood at 78 min. This molecule registered a half-maximal inhibitory concentration (IC50) on human BTK of 20.1 nM. The molecule also gave a 50% inhibitory concentration (IC50) in series [1] of 48 nM.

Molecule `CC(C)(O)c1cn2cc(NC(=O)c3coc(-c4ccnc(N)c4)n3)c(-c3ccccc3)cc2n1` [WX017] showed a half-inhibitory concentration (IC50) in the series with OCI-LY3 cell line of 18 nM. Also, in “Pharmacokinetics of rats”, the Vd was determined as 0.8 L/kg, the AUC(0-t) is 5.51 µM·h, the clearance worked out at 7 mL/min/kg and the half-life is 246 min. Further, in “Pharmacokinetics of rats”, the bioavailability stood at 29%, the AUC is 4.77 µM·h, the Cmax came out at 1.02 µM and the Tmax was found to be 48 min. For the same molecule, the half-inhibitory concentration (IC50) against human BTK stood at 5.2 nM. For the same molecule, in series [1], the midpoint of inhibition, the IC50, lay at 7 nM.

Regarding `CC(C)(O)c1cn2cc(NC(=O)c3coc(-c4ccnc(N)c4F)n3)c(-c3ccccc3)cc2n1` [WX027], in the series on OCI-LY3 cell line, the IC50 was 48 nM. Moreover, in “Pharmacokinetics of rats”, the Vd was 0.3 L/kg, the AUC(0-t) turned out to be 8.84 µM·h, the clearance worked out at 4 mL/min/kg and the half-life was 84 min. In “Pharmacokinetics of rats”, the bioavailability was determined as 38%, the AUC came out at 10.2 µM·h, the Cmax stood at 4.33 µM and the time to peak (Tmax) turned out to be 18 min. Further, the IC50 against human BTK is 2.9 nM. For the same molecule, inhibition in series [1] was half-maximal at 26 nM (IC50).
